# Assay results reported in patent US12629348B2, “Method and composition for treating osteoarthritis” (Vireo Systems, Inc., priority 2013, dated 2026).
# System: canines having OA
# Test: Double-blind randomized trial in OA canines: daily activity by pedometer
# Assay type: in vivo, canine
# Conditions: 36 mg/kg/day oral
# Description: The double-blind study was performed on a total of 30 adult canines of various breeds in five different private practice clinics. Owner consent was obtained prior to participation in the study. Each clinic was responsible for enrolling 6 canines into the study. Inclusion criteria for the study consisted of clinical assessment and radiograph confirmation of OA in at least one joint and a score of 22 or greater on the Helsinki chronic pain index (“HCPI”). Use of NSAIDs or other dietary supplements for OA were allowed, provided the current treatment regimens had not been altered for a period of at least three months. […] Canines participating in the study were also fitted with pedometers (Draco Tech International, Taiwan) to quantitatively track changes in daily activity during the course of the study. […] The pedometers were fitted onto the collars at the clinic, and owners were instructed on care and maintenance of the pedometers and provided a log book to record the daily pedometer readings. Pedometer readings were recorded on a daily basis starting one week prior to the study and continuing throughout the two-week trial period. The daily pedometer readings recorded throughout an entire week (7-day period) were used to determine the average daily activity during the baseline period (one week prior to the start of the study) and the first and second weeks of the trial. […]
substance,measurement,setting,value
ethyl (α-guanido-methyl) ethanoate [Alpha-GEE],increase in daily pedometer readings (mobility),"first week versus baseline week, p<0.05 vs placebo",approximately 20%
same,"increase in daily pedometer readings (mobility, physical activity)","second week versus baseline week, p<0.01 vs placebo",approximately 30%
